{"source": "ChEMBL document CHEMBL1949588", "about": "“Synthesis of [¹¹C]uric acid, using [¹¹C]phosgene, as a possible biomarker in PET imaging for diagnosis of gout” (Bioorg Med Chem Lett, 2012)", "key": {"[1]": {"test": "Drug uptake in potassium oxonate treated Sprague-Dawley rat hyperuricemic model limb at 22 to 30 MBq, iv after 65 to 70 mins by PET analysis", "format": "ADME, organism-based", "conditions": "in vivo; call rule not given here"}, "[2]": {"test_system": "Blood", "test": "Ratio of drug uptake in potassium oxonate treated Sprague-Dawley rat hyperuricemic model blood at 22 to 30 MBq, iv after 65 to 70 mins to drug uptake in normal rat", "format": "ADME, organism-based", "conditions": "in vivo"}, "[3]": {"test_system": "Rattus norvegicus", "test": "Ratio of drug uptake in potassium oxonate treated Sprague-Dawley rat hyperuricemic model at 22 to 30 MBq, iv after 60 mins to drug uptake in normal rat", "format": "ADME, organism-based", "conditions": "in vivo, 1 h"}, "[4]": {"test_system": "Blood", "test": "Metabolic stability in Sprague-Dawley rat blood assessed as formation of [11C][…] metabolite at 22 to 30 MBq, iv after 30 mins by radiometric HPLC analysis", "format": "ADME, organism-based", "conditions": "in vivo, 0.5 h"}, "[5]": {"test": "Metabolic stability in potassium oxonate treated Sprague-Dawley rat hyperuricemic model blood assessed as compound remaining at 22 to 30 MBq, iv after 30 mins by radiometric HPLC analysis", "format": "ADME, organism-based", "conditions": "read-out: Stability"}, "[6]": {"test_system": "Blood", "test": "Drug uptake in potassium oxonate treated Sprague-Dawley rat hyperuricemic model blood at 22 to 30 MBq, iv after 60 mins by gamma counting", "conditions": "in vivo, 1 h"}}}
{"compound": "O=c1[nH]c(=O)c2[nH][11c](=O)[nH]c2[nH]1", "values": [{"measurement": "Drug uptake", "setting": "[1]", "result": "Active"}, {"measurement": "Ratio", "setting": "[2]", "result": 1.6}, {"measurement": "Ratio", "setting": "[3]", "result": 1.7}, {"measurement": "Stability", "setting": "[4]", "result": "Unstable"}, {"measurement": "remaining at 0.5 h", "setting": "[5]", "result": 100, "unit": "%"}, {"measurement": "Drug uptake", "setting": "[6]", "result": 0.57, "unit": "%ID"}]}
